Assay results taken from patent US10369188B2, “Methods for preventing and treating pneumocystis infections” (Cidara Therapeutics, Inc., priority 2016, dated 2019).

Tested on: Pneumocystis murina
Assay: Pneumocystis murina prophylaxis study in dexamethasone-immunosuppressed mice (lung nuclei and asci counts)
Assay type: in vivo, C3H/HeN mice
Details: positive control group, 50/250 mg/kg/3x/wk, 6 weeks
Description: Briefly, the vehicle was prepared by first adding 1% Tween 20 to sterile phosphate-buffered saline (PBS) and then adding DMSO for a 10% DMSO in 1% Tween 20 in sterile PBS solution. […] For the 20 mg/kg/d dose, the drug was dissolved in vehicle to a concentration of 2.4 mg/ml. The mice then received 0.48 mg in a 200 μl dose. The drug was stored at −20° C. until initiation of dosage. The drug was prepared fresh for every two days of dosing.
C3H/HeN mice (Charles River) were infected with P. murina by intranasal inoculation of P. murina organisms at 2×106/50 μl from our liquid nitrogen repository. Prior to inoculation, the P. murina organisms were pre-incubated overnight in RPMI 1640 medium supplemented with calf serum and antibiotics to eliminate any bacterial contamination. […] Slides were made from the lung homogenates at different dilutions and stained with Diff-Quik to quantify the trophic forms and cresyl echt violet to quantify the asci.
Efficacy is based on the reduction of organism burden between the treatment groups and the negative control group as determined by microscopic evaluation. The nuclei and asci counts for each lung are log transformed and statistical analysis is determined by the analysis of variance (ANOVA); individual groups are compared by the Student-Newman-Keuls t test for multiple comparisons using GraphPad Prism. […]

trimethoprim/sulfamethoxazole [TMP/SMX]
asci observed by microscopic evaluation: no asci observed
nuclei seen by microscopic evaluation: no nuclei seen
